Here are results for four molecules from ChEMBL document CHEMBL3797088, “Discovery and structure activity relationship study of novel indazole amide inhibitors for extracellular signal-regulated kinase1/2 (ERK1/2)” (Bioorg Med Chem Lett, 2016).

pIC50: −log10 of the molar value. Active and inactive are the calls of the source. The calls are words filed in the database; no cut-off is given here.

Usually AUC(0-t) stands for the area under the concentration-time curve up to a stated or last time point. A high value points to high exposure. Broadly, the pIC50 is the IC50 on a negative log10 scale, so that one unit is a factor of ten. By bioavailability is commonly meant dose-corrected exposure relative to a reference, in per cent. A low value points to poor availability.

Data set [1] is described as follows: AUC (0 to 24 hrs) in mouse at 5 mg/kg, po. Type of data set: ADME, organism-based. On the set-up: dose 5 mg/kg, time < 24 hr, route oral. The following applies: in vivo.
Data set [2] concerns the target ALK tyrosine kinase receptor (Homo sapiens, UniProt Q9UM73). The data set is described as follows: Inhibition of ALK (unknown origin) by Z-LYTE assay.
Data set [3] addresses Insulin-like growth factor 1 receptor (Homo sapiens, UniProt P08069). As to the kind of experiment: Inhibition of IGF1R (unknown origin) by Z-LYTE assay.
For data set [4], the target named is Receptor tyrosine-protein kinase erbB-2 (Homo sapiens, UniProt P04626). As to the kind of experiment: Inhibition of ERBB2 (unknown origin) by Z-LYTE assay.
The nature of data set [5]: Oral bioavailability in mouse at 5 mg/kg. Type of data set: ADME, organism-based. The following applies: in vivo.
Data set [6] concerns the target Fibroblast growth factor receptor 1 (Homo sapiens, UniProt P11362). The data set is described as follows: Inhibition of FGFR1 (unknown origin) by Z-LYTE assay.
For a further data set, the system named is HT-29. As to the kind of experiment: Antiproliferative activity against human HT-29 cells harboring B-RAF V600E mutant after 72 hrs by SRB assay. Type of data set: functional, cell-based. Particulars: HT-29, 72 h.
Data set [7] concerns the target Epidermal growth factor receptor (Homo sapiens, UniProt P00533). As to the kind of experiment: Inhibition of EGFR (unknown origin) by Z-LYTE assay.
Data set [8] concerns the target Dual specificity mitogen-activated protein kinase kinase; MEK1/2 (Homo sapiens) (UniProt P36507+Q02750). The data set is described as follows: Inhibition of ERK phosphorylation in human HT-29 cells after 2 hrs by Western blot analysis. Type of data set: cell-based. A general note: A western blot detects proteins with antibodies after separation by electrophoresis.

The target of data set [9] is Mitogen-activated protein kinase 1 (Homo sapiens, UniProt P28482). As to the kind of experiment: Inhibition of human recombinant GST-tagged ERK2 expressed in Escherichia coli using ser/thr 3 Peptide as substrate preincubated for 1 hr measured after 1 hr by Z-LYTE assay.
Mitogen-activated protein kinase 1, sequence (P28482 whole entry): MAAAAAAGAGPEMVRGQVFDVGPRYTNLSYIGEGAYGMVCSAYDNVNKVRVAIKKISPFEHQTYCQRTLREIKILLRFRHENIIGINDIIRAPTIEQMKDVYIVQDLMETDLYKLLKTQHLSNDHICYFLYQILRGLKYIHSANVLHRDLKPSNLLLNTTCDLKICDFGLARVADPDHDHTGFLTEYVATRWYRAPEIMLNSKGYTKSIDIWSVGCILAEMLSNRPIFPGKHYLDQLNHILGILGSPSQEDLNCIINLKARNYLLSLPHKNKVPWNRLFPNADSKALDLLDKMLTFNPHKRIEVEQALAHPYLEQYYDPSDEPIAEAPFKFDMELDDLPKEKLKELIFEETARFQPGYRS
Data set [10] addresses Proto-oncogene tyrosine-protein kinase receptor Ret (Homo sapiens, UniProt P07949). As to the kind of experiment: Inhibition of RET (unknown origin) by Z-LYTE assay.
Data set [11] concerns the target Hepatocyte growth factor receptor (Homo sapiens, UniProt P08581). The data set is described as follows: Inhibition of c-MET (unknown origin) by Z-LYTE assay.
Data set [12] addresses Mitogen-activated protein kinase; ERK1/ERK2 (Homo sapiens) (UniProt P27361+P28482). The data set is described as follows: Inhibition of ERK1/ERK2 in human HT-29 cells assessed as reduction in p90RSK phosphorylation after 2 hrs by Western blot analysis. It is filed as cell-based.
The target of data set [13] is Platelet-derived growth factor receptor beta (Homo sapiens, UniProt P09619). The data set is described as follows: Inhibition of PDGFRbeta (unknown origin) by Z-LYTE assay.
In data set [14] the target is Tyrosine-protein kinase ABL1 (Homo sapiens, UniProt P00519). As to the kind of experiment: Inhibition of ABL (unknown origin) by Z-LYTE assay.
The nature of data set [15]: Clearance in mouse at 5 mg/kg, po or 1 mg/kg, iv. It is filed as ADME, organism-based. Particulars: in vivo.
In data set [16] the target is Proto-oncogene tyrosine-protein kinase Src (Homo sapiens, UniProt P12931). As to the kind of experiment: Inhibition of c-Src (unknown origin) by Z-LYTE assay.
Proto-oncogene tyrosine-protein kinase Src, sequence (P12931 2-536 limits assumed): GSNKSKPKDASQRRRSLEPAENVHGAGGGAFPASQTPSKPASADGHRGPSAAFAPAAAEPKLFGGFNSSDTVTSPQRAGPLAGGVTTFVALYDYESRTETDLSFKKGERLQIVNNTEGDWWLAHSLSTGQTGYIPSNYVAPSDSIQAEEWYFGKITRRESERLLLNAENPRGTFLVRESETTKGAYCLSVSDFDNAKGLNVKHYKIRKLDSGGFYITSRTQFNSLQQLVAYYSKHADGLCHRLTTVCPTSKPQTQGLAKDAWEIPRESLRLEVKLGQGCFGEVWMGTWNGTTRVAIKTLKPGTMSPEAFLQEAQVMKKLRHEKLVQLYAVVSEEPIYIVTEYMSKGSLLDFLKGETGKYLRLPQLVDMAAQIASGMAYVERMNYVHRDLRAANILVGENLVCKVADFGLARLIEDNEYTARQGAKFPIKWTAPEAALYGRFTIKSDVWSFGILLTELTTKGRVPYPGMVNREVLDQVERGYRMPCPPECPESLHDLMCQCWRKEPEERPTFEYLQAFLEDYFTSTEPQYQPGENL
The next data set deals with Ephrin type-A receptor 2 (Homo sapiens, UniProt P29317). The data set is described as follows: Inhibition of EPHA2 (unknown origin) by Z-LYTE assay.
Data set [17] concerns the target Vascular endothelial growth factor receptor 2 (Homo sapiens, UniProt P35968). As to the kind of experiment: Inhibition of KDR (unknown origin) by Z-LYTE assay.
The target in data set [18] is Mitogen-activated protein kinase 3 (Homo sapiens, UniProt P27361). As to the kind of experiment: Inhibition of human recombinant GST-tagged ERK1 expressed in Escherichia coli using ser/thr 3 Peptide as substrate preincubated for 1 hr measured after 1 hr by Z-LYTE assay.
Mitogen-activated protein kinase 3, sequence (P27361 whole entry): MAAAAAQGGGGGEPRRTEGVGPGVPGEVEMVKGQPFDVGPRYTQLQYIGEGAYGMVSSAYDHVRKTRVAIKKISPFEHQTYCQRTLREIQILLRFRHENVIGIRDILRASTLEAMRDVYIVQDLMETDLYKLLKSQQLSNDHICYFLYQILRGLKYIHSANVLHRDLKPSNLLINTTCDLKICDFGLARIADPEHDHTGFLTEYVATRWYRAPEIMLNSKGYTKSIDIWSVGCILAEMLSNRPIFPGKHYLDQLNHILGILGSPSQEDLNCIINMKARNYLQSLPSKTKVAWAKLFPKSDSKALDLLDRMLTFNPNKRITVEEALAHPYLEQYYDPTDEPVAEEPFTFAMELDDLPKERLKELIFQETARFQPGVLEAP
For data set [19], the target named is Vascular endothelial growth factor receptor 1 (Homo sapiens, UniProt P17948). As to the kind of experiment: Inhibition of FLT1 (unknown origin) by Z-LYTE assay.
Data set [20] is described as follows: AUC (0 to 24 hrs) in rat at 10 mg/kg, po. It is filed as ADME, organism-based. Details: time < 24 hr, dose 10 mg/kg, route oral. The following applies: in vivo.
Data set [21] can be described thus: Apparent permeability in human Caco2 cells assessed as Fabs after 95 mins by LC-MS/MS analysis. It is filed as ADME, cell-based. The following applies: caco-2, 95 min.

Fibroblast growth factor receptor 1, sequence (P11362 whole entry): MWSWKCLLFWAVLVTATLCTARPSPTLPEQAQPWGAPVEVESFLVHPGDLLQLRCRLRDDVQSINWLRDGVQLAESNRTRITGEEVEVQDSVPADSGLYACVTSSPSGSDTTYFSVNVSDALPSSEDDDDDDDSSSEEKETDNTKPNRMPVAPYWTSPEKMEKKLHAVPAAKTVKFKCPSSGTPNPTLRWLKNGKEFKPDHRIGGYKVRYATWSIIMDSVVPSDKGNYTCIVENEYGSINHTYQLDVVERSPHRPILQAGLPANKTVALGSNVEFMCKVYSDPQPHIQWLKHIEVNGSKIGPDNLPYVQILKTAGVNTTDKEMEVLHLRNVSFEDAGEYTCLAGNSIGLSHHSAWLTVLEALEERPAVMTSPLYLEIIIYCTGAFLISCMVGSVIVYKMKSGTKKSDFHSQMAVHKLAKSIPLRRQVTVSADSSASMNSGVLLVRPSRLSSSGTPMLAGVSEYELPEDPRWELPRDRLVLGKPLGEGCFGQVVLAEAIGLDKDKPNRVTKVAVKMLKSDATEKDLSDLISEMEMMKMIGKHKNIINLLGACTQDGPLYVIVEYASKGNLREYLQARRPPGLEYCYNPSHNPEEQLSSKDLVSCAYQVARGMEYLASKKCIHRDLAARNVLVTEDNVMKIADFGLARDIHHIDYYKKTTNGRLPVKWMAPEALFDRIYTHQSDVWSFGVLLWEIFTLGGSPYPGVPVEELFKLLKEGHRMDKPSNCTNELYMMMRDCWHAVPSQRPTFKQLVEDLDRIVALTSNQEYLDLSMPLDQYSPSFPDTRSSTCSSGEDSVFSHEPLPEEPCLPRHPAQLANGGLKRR
Mitogen-activated protein kinase; ERK1/ERK2 (Homo sapiens), sequence (P27361 whole entry, looked up): as the sequence (P27361 whole entry) above
Mitogen-activated protein kinase; ERK1/ERK2 (Homo sapiens), sequence (P28482 whole entry, looked up): as the sequence (P28482 whole entry) above
Hepatocyte growth factor receptor, sequence (P08581 whole entry): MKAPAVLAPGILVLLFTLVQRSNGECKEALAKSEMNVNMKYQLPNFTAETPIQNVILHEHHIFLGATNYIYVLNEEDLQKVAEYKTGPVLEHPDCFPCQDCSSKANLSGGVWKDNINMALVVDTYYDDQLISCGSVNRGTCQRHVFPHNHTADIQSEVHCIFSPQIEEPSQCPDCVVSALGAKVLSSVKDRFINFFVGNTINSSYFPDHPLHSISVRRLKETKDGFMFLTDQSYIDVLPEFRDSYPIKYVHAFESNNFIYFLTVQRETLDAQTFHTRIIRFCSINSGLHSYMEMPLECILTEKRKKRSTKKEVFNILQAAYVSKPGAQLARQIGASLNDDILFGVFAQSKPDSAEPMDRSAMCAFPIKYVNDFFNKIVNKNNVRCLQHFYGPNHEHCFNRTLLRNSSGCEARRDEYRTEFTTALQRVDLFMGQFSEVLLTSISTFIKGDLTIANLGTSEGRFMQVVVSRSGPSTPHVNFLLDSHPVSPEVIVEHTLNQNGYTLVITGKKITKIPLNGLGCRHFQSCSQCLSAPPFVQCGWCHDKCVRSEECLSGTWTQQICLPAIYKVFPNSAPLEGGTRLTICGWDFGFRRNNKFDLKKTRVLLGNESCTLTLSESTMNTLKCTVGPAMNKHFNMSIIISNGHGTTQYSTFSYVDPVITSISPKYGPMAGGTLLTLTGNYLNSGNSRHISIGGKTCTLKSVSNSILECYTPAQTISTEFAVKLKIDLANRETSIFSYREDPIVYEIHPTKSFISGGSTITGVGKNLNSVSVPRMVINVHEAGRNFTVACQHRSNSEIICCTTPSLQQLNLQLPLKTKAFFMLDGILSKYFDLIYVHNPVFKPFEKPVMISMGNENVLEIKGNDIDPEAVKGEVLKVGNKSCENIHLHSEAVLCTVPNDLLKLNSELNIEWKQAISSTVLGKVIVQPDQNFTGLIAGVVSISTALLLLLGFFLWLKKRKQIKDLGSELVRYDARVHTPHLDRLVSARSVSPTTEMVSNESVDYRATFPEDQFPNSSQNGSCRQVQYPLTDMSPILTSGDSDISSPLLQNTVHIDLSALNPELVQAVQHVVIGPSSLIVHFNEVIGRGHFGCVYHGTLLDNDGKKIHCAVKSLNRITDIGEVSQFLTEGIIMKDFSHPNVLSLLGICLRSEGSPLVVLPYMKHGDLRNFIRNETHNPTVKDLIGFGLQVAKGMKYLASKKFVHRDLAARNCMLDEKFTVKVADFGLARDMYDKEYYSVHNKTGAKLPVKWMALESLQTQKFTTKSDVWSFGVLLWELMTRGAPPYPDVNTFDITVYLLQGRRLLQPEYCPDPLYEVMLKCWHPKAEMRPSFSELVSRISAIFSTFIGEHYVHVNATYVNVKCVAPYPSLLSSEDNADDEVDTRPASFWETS
Dual specificity mitogen-activated protein kinase kinase; MEK1/2 (Homo sapiens), sequence (P36507 whole entry, looked up): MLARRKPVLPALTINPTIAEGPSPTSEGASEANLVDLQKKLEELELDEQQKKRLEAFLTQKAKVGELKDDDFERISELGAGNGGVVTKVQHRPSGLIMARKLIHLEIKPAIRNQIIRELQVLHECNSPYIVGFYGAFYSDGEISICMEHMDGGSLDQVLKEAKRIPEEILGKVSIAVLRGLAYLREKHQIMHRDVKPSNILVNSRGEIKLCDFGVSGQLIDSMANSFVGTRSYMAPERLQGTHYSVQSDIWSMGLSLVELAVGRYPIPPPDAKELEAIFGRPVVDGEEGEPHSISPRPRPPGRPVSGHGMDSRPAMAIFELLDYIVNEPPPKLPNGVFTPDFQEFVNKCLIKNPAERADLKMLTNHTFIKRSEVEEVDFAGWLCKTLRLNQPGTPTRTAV
Dual specificity mitogen-activated protein kinase kinase; MEK1/2 (Homo sapiens), sequence (Q02750 whole entry, looked up): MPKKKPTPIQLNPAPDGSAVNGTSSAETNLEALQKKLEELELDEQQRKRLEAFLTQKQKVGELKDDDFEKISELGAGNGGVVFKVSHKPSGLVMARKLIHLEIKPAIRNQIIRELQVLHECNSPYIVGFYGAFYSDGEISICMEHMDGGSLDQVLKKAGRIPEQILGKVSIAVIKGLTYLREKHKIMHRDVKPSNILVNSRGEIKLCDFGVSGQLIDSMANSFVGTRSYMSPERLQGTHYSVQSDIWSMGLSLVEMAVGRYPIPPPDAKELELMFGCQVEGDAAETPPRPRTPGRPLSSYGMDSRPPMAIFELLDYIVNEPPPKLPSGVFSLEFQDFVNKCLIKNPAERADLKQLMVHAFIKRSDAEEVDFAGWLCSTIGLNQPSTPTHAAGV

Molecule `Cc1cc(-c2n[nH]c3ccc(C(=O)NC(C)c4c(Cl)cncc4Cl)cc23)ccn1` (stereo not drawn) came in with an AUC(0-t) at 24 h in data set [1] of 61 ng·h/mL. The pIC50 in data set [2] is under 6.00; in data set [3], under 6.00; in data set [4] it was under 6.00; in data set [6] it was under 6.00; in the data set on HT-29, 6.46; in data set [7], under 6.00. Besides, the pIC50 was 7.78 in data set [9]; under 6.00 in data set [10]; under 6.00 in [11]; under 6.00 in data set [13]; under 6.00 in [14]; under 6.00 in [16]. Also, the pIC50 against Ephrin type-A receptor 2 is under 6.00; in [17], under 6.00; in data set [18], 7.53; in [19], under 6.00. Moreover, the bioavailability in [5] was 12%. In addition, in [8], the inhibition entry was “inactive”. Moreover, the inhibition entry in [12] is “Dose-dependent effect”. Also, in data set [15], the clearance came out at 163 mL/min/kg.
`Cc1cc(-c2n[nH]c3ccc(C(=O)NC(C)c4cccc(Cl)c4)cc23)cc(C)n1` (stereo not drawn) yielded an AUC(0-t) at 24 h in data set [1] of 162 ng·h/mL. This molecule also displayed a bioavailability in data set [5] of 8%. Also, the pIC50 with HT-29 is 5.42; in [9] it was 6.96. The clearance in data set [15] was found to be 42 mL/min/kg.
For the molecule `CC(NC(=O)c1ccc2[nH]nc(-c3ccncc3)c2c1)c1cccc(Cl)c1` (stereo not drawn), the pIC50 is under 6.00 in data set [2]; under 6.00 in data set [3]; under 6.00 in data set [4]; under 6.00 in data set [6]; 6.05 with HT-29; under 6.00 in data set [7]. In addition, the pIC50 in data set [9] is 7.27; in data set [10], under 6.00; in data set [11], under 6.00; in [13], under 6.00; in data set [14], under 6.00; in [16], under 6.00. The pIC50 is under 6.00 at Ephrin type-A receptor 2, under 6.00 in [17], 6.81 in [18] and under 6.00 in data set [19].
For the molecule `C[C@@H](NC(=O)c1ccc2[nH]nc(-c3ccncc3)c2c1)c1cccc(Cl)c1`, the pIC50 with HT-29 is 6.05; in data set [9], 7.59. Moreover, the inhibition entry in data set [8] was “inactive”. In data set [12], the inhibition entry is “Dose-dependent effect”. This molecule yielded an AUC(0-t) at 24 h in data set [20] of 56 ng·h/mL. For the same molecule, the Fabs in data set [21] turned out to be 100%.
